Results reported in patent publication US20240166598A1, “COMPOUNDS, COMPOSITIONS, AND METHODS OF USING THE SAME” (priority 2021, published 2024).
Read-outs that look alike come from different tables or passages of the source.

Tests used:
[1] = target: T1, SARS CoV-2 PLpro (Severe acute respiratory syndrome coronavirus 2 (2019-nCoV) (SARS-CoV-2), UniProt P0DTD1); assay: biochemical; type: biochemical
[2] = target: T1, SARS CoV-2 PLpro; assay: biochemical; settings: Table 8; read-out: FRET Enzymatic assay IC50
[3] = target: T1, SARS CoV-2 PLpro; assay: cell-based; settings: read-out: FlipGFP-PLpro assay EC50
[4] = target: T1, SARS CoV-2 PLpro; assay: biochemical; type: binding; settings: for Ave ka / ka1 / ka2 / ka3 / ka4: SPR association rate; for Ave ka / Ave kd: average of replicates; for ka1 / kd1: replicate 1; for ka2 / kd2: replicate 2; for ka3 / kd3: replicate 3; for ka4 / kd4: replicate 4; for Ave kd / kd1 / kd2 / kd3 / kd4: SPR dissociation rate
[5] = for In vitro CIint / Scale-up CIint: human
[6] = in vitro; settings: human, microsomes
[7] = in vitro; settings: human, Caco-2
[8] = Table 7, read-out: Enzymatic assay IC50
[9] = read-out: Enzyme inhibition IC50
[10] = read-out: SPR binding assays KD
[11] = Table 7, read-out: SPR binding assay KD

Cc1ccc(NC2CNC2)cc1C(=O)N[C@H](C)c1cccc(-c2ccc(CNC(=O)C(F)(F)C(F)(F)F)s2)c1 showed an IC50 [1, 8] of 0.442 µM.

Work on Cc1ccc(OC2CNC2)cc1C(=O)N[C@H](C)c1cccc(-c2ccc(CN3CCCC3)o2)c1 yielded an IC50 [2] of 4.58 ± 0.92 µM and an EC50 [3] greater than 60 µM.

In the case of Cc1ccc(NC2CN(C(=O)OC(C)(C)C)C2)cc1C(=O)N[C@H](C)c1cccc2ccccc12 [ZN-2-180], the IC50 [1, 9] is reported as 6.08 µM and the Kd [4, 10] is reported as 16 µM.

In the case of Cc1ccc(N)cc1C(=O)NC(C)c1cccc2cc[nH]c12 (stereo not drawn) [Example 18, N-(1-(1H-indol-7-yl)ethyl)-5-amino-2-methylbenzamide], the IC50 ([1]; read-out: Enzymatic assay IC50) is reported as 4.7 µM and the Kd ([4]; read-out: SPR binding assay KD) is reported as 30.3 µM.

Work on Cc1ccc(NC(=O)C2CCN(C(=O)OC(C)(C)C)CC2)cc1C(=O)N[C@H](C)c1cccc2ccccc12 [Example 4, Tert-butyl (R)-4-((4-methyl-3-((1-(naphthalen-1-yl)ethyl)carbamoyl)phenyl)carbamoyl)piperidine-1-carboxylate] yielded an IC50 ([1]; read-out: Enzymatic assay IC50) of 6 µM and a Kd ([4]; read-out: SPR binding assay KD) of 31.1 µM.

Cc1ccc(N)cc1C(=O)NC(CO)c1cccc2ccccc12 (stereo not drawn) [ZN-3-13] gave an IC50 ([1]; Table 11, read-out: Enzyme inhibition IC50) of roughly 100 µM and a Kd [4, 10] of 39.1 µM.

“(R)-6-amino-3-methyl-N- (1-(naphthalen-1- yl)ethyl)picolinamide [Example 40]” gave an IC50 ([1]; read-out: Enzymatic assay IC50) of 10 to 100 µM and a Kd ([4]; read-out: SPR binding assay KD) greater than 1000 µM.

For CN(C)CC[C@@H](NC(=O)c1cccc(N(C)C2CNC2)c1)c1cccc2ccccc12 [Example 41, (R)-3-(azetidin-3-yl(methyl)amino)-N-(3-(dimethylamino)-1-(naphthalen-1-yl)propyl)benzamide], the IC50 [1, 8] was greater than 100 µM.

Work on Cc1ccc(NC2CCN(C(=O)OC(C)(C)C)CC2)cc1C(=O)N[C@H](C)c1cccc2ccccc12 [ZN-2-181] yielded an IC50 [1, 9] of 1.1 µM and a Kd [4, 10] of 4.7 µM.

Work on Cc1ccc(NC2CCN(C(=O)OC(C)(C)C)CC2)cc1C(=O)N[C@H](C)c1cccc2ccccc12 [Example 2, Tert-butyl (R)-4-((4-methyl-3-((1-(naphthalen-1-yl)ethyl)carbamoyl)phenyl)amino)piperidine-1-carboxylate] yielded an IC50 ([1]; read-out: Enzymatic assay IC50) of 1.1 µM and a Kd ([4]; read-out: SPR binding assay KD) of 4.7 µM.

In the case of Cc1ccc(NC(=O)C2CN(C(=O)OC(C)(C)C)C2)cc1C(=O)N[C@H](C)c1cccc2ccccc12 [Example 3, Tert-butyl (R)-3-((4-methyl-3-((1-(naphthalen-1-yl)ethyl)carbamoyl)phenyl)carbamoyl)azetidine-1-carboxylate], the IC50 ([1]; read-out: Enzymatic assay IC50) is reported as 5.5 µM and the Kd ([4]; read-out: SPR binding assay KD) is reported as 32.6 µM.

In the case of Cc1ccc(NC2CNC2)cc1C(=O)N[C@H](C)c1cccc(-c2cccs2)c1 (single isomer, unassigned) [ZN-3-80], the “In vitro CIint” value [5] is reported as 5.64 μL/min/mg protein, the “Scale-up CIint” value [5] is reported as 0.424 L/h/kg and the “stability in human liver microsome stability assays, in words” value ([5]; microsomes) is reported as “more stable than GRL0617”. For the same compound, the half-life [6] was 4.1 h, the Ave ka [4] was 351000 M⁻¹ s⁻¹ and the ka1 [4] was 291000 M⁻¹ s⁻¹. The ka2 [4] was 334000 M⁻¹ s⁻¹, the ka3 [4] was 303000 M⁻¹ s⁻¹ and the ka4 [4] was 477000 M⁻¹ s⁻¹. It also gave an Ave kd [4] of 0.327 s⁻¹, a kd1 [4] of 0.318 s⁻¹ and a kd2 [4] of 0.369 s⁻¹. For the same compound, the kd3 [4] was 0.290 s⁻¹ and the kd4 [4] was 0.332 s⁻¹.

Compound C[C@@H](NC(=O)c1cc(NC2CNC2)ccc1Cl)c1csc2ccccc12 [Example 54, (R)-5-(azetidin-3-ylamino)-N-(1-(benzo[b]thiophen-3-yl)ethyl)-2-chlorobenzamide] has an IC50 ([1]; read-out: Enzymatic assay IC50) of 8.5 µM and a Kd ([4]; read-out: SPR binding assay KD) of 33 µM.

For Cc1ccc(NC2CNC2)cc1C(=O)N[C@H](C)c1cccc2ccccc12 [Example 5, (R)-5-(azetidin-3-ylamino)-2-methyl-N-(1-(naphthalen-1-yl)ethyl)benzamide], the Kd [4, 11] was 0.81 µM.

For Cc1ccc([N+](=O)[O-])cc1C(=O)NC(C)c1c[nH]c2ccccc12 (stereo not drawn), the IC50 [1, 8] was greater than 100 µM.

In the case of Cc1ccc(N)cc1C(=O)N[C@H](C)c1c(O)ccc2ccccc12 [Example 27, (R)-5-amino-N-(1-(2-hydroxynaphthalen-1-yl)ethyl)-2-methylbenzamide], the IC50 [1, 8] is reported as greater than 100 µM and the Kd ([4]; read-out: SPR binding assay KD) is reported as 184 µM.

For Cc1ccc(OC2CNC2)cc1C(=O)N[C@H](C)c1cccc(-c2ccc(CN[C@H]3CC[C@@H](O)C3)o2)c1, the IC50 [2] was 3.02 ± 0.58 µM and the EC50 [3] was greater than 60 µM.

For Cc1ccc(NC2CNC2)cc1C(=O)N[C@H](C)c1cccc2ccccc12 [ZN-2-184], the “PLpro inhibition potency, in words (SAR)” value ([1]; compared with GRL0617 / parent) was “two-fold improvement relative to GRL0617”, the IC50 [1, 9] was 1.01 µM and the Kd ([4]; KD2) was 1.17 µM. For the same compound, the Kd ([4]; KD3) was 1.06 µM, the Kd ([4]; KD4) was 0.856 µM and the “rate of association relative to GRL0617” value ([4]; SPR) was “twofold increase in rate of association”. It also gave an Ave ka [4] of 340000 M⁻¹ s⁻¹, a ka1 [4] of 426000 M⁻¹ s⁻¹ and a ka2 [4] of 348000 M⁻¹ s⁻¹. For the same compound, the ka3 [4] was 231000 M⁻¹ s⁻¹, the ka4 [4] was 356000 M⁻¹ s⁻¹ and the Ave kd [4] was 0.349 s⁻¹. It also gave a kd1 [4] of 0.438 s⁻¹, a kd2 [4] of 0.407 s⁻¹ and a kd3 [4] of 0.246 s⁻¹. It also gave a kd4 [4] of 0.305 s⁻¹ and a Kd [4, 10] of 1.03 µM.

Cc1ccc(NC2CN(C(=O)OC(C)(C)C)C2)cc1C(=O)N[C@H](C)c1cccc2ccccc12 [Example 1, Tert-butyl (R)-3-((4-methyl-3-((1-(naphthalen-1-yl)ethyl)carbamoyl)phenyl)amino)azetidine-1-carboxylate] showed an IC50 ([1]; read-out: Enzymatic assay IC50) of 6.1 µM and a Kd ([4]; read-out: SPR binding assay KD) of 16 µM.

Work on Cc1ccc(NC(=O)C2CCN(C(=O)OC(C)(C)C)CC2)cc1C(=O)N[C@H](C)c1cccc2ccccc12 [ZN-2-183] yielded an IC50 [1, 9] of 6 µM and a Kd [4, 10] of 31.1 µM.

In the case of Cc1ccc(N)cc1CNC(C)c1cccc2ccccc12 (stereo not drawn) [DY2-64], the “PLpro inhibition potency, in words (SAR)” value [1] is reported as “sharp decline in potency”.

C[C@H]1O[C@@H](O[C@H]2[C@@H](O)C[C@H](O[C@H]3[C@@H](O)C[C@H](O[C@H]4CC[C@@]5(C)[C@H](CC[C@@H]6[C@@H]5C[C@@H](O)[C@]5(C)[C@@H](C7=CC(=O)OC7)CC[C@]65O)C4)O[C@@H]3C)O[C@@H]2C)C[C@H](O)[C@@H]1O [Digoxin] gave a Papp A→B [7] of 4 nm/s and a Papp B→A [7] of 104 nm/s.

CCOC(=O)[C@@H]1CC[C@H](NCc2cnc(-c3cccc([C@@H](C)NC(=O)c4cc(NC5CNC5)ccc4C)c3)s2)C1 gave an IC50 [1, 8] of 0.496 µM.

Cc1ccc(N)cc1C(=O)N[C@H](C)c1cccc2cccnc12 [Example 35, (R)-5-amino-2-methyl-N-(1-(quinolin-8-yl)ethyl)benzamide] gave a Kd [4, 11] greater than 1000 µM.

Work on Cc1ccc(OC2CNC2)cc1C(=O)N[C@H](C)c1cccc(-c2ccc(CN[C@H]3CC[C@@H](C(=O)OC[C@H]4O[C@@H](n5ccc(NO)nc5=O)[C@H](O)[C@@H]4O)C3)s2)c1 yielded an IC50 [2] of 0.75 ± 0.05 µM and an EC50 [3] greater than 20 µM.

Work on CC(C)NCC(O)COc1cccc2ccccc12 (stereo not drawn) [Propranolol] yielded a Papp A→B [7] of 179 nm/s, a Papp B→A [7] of 183 nm/s and an efflux ratio [7] of 1.02.

Work on Cc1ccc(N)cc1S(=O)(=O)N[C@H](C)c1cccc2ccccc12 [Example 48, (R)-5-amino-2-methyl-N-(1-(naphthalen-1-yl)ethyl)benzenesulfonamide] yielded an IC50 [1, 8] greater than 100 µM.

For Cc1ccc(NC2CNC2)cc1C(=O)N[C@H](C)c1cccc(-c2ccc(CN3CC[C@H](O)C3)s2)c1 [XR8-57], the “In vitro CIint” value [5] was 0.27 μL/min/mg protein, the “Scale-up CIint” value [5] was 0.0204 L/h/kg and the half-life [6] was 85.4 h.

Work on Cc1ccc(N(C)C2CNC2)cc1C(=O)N[C@H](C)c1c(OC2CNC2)ccc2ccccc12 [Example 30, (R)-5-(azetidin-3-yl(methyl)amino)-N-(1-(2-(azetidin-3-yloxy)naphthalen-1-yl)ethyl)-2-methylbenzamide] yielded an IC50 [1, 8] greater than 100 µM.

Cc1ccc(N(C)C2CNC2)cc1C(=O)N[C@H](C)c1cccc2c1ccn2CC1CCC1 [Example 50, (R)-5-(azetidin-3-yl(methyl)amino)-N-(1-(1-(cyclobutylmethyl)-1H-indol-4-yl)ethyl)-2-methylbenzamide] showed an IC50 ([1]; read-out: Enzymatic assay IC50) of 3.3 µM and a Kd ([4]; read-out: SPR binding assay KD) of 14.1 µM.

In the case of C=C(N[C@H](C)c1cccc2ccccc12)C(=O)c1cc(N(C)C2CNC2)ccc1Cl [ZN-3-70], the IC50 ([1]; Table 10, read-out: Enzyme inhibition IC50) is reported as 10.7 µM and the Kd ([4]; Table 10, read-out: SPR binding assays KD) is reported as 41.9 µM.

With Cc1ccc(CNCC(=O)O)cc1C(=O)N[C@H](C)c1cccc2ccccc12 [ZN-3-56] the “PLpro inhibition potency, in words (SAR)” value ([1]; compared with GRL0617 / parent) was “slight improvement of potency over GRL0617”.

In the case of Cc1ccc(NC2CNC2)cc1C(=O)N[C@H](C)c1cccc(-c2ncc(CN3CCCC3)s2)c1, the IC50 [1, 8] is reported as 3.14 µM.

Cc1ccc(NC2CNC2)cc1C(=O)N[C@H](C)c1cccc(-c2ccc(CN[C@H]3CC[C@@H](OC(=O)/C=C/c4cccnc4)C3)s2)c1 gave an IC50 [1, 8] of 0.387 µM.

Compound Cc1ccc(N)cc1C(=O)NC(CO)c1cccc2ccccc12 (stereo not drawn) [Example 26, 5-amino-N-(2-hydroxy-1-(naphthalen-1-yl)ethyl)-2-methylbenzamide] has an IC50 [1, 8] of roughly 100 µM.

For Cc1ccc(N)cc1S(=O)(=O)NC(C)c1cccc2ccccc12 (stereo not drawn) [DY3-63], the “PLpro inhibition potency, in words (SAR)” value [1] was “sharp decline in potency”.

Cc1ccc(NC2CNC2)cc1C(=O)N[C@H](C)c1cccc(-c2ccc(CO)s2)c1 showed an IC50 [1, 8] of 1.57 µM.

In the case of Cc1ccc(OC2CNC2)cc1C(=O)N[C@H](C)c1cccc(-c2ccc(CN[C@H]3CC[C@@H](C(=O)NCCOCCOCCOCCOCCNc4cccc5c4C(=O)N(C4CCC(=O)NC4=O)C5=O)C3)s2)c1 (stereo partly drawn), the IC50 [2] is reported as 1.67 ± 0.33 µM and the EC50 [3] is reported as greater than 20 µM.
